Data taken from PubChem BioAssay (NCI).
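Cells were grown in 96-well plates and exposed to each compound for 48 hours at five concentrations; endpoints were interpolated linearly between bracketing concentrations, or set to the highest concentration if not reached. GI50 is the concentration that inhibits growth by half. TGI marks complete inhibition of growth.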

How the values were obtained:
Assay in all cases: NCI anticancer screen, dose series, 48 h
[1] = tested on: 786-0 renal
[2] = tested on: A498 renal
[3] = tested on: A549 NSCLC
[4] = tested on: ACHN renal
[5] = tested on: BT-549 breast
[6] = tested on: CAKI-1 renal
[7] = tested on: CCRF-CEM leukemia
[8] = tested on: COLO 205 colon
[9] = tested on: DU-145 prostate
[10] = tested on: HCC-2998 colon
[11] = tested on: HCT-116 colon
[12] = tested on: HCT-15 colon
[13] = tested on: HL-60(TB) leukemia
[14] = tested on: HOP-62 NSCLC
[15] = tested on: HOP-92 NSCLC
[16] = tested on: HS 578T breast
[17] = tested on: HT29 colon
[18] = tested on: IGROV1 ovarian
[19] = tested on: K-562 leukemia
[20] = tested on: KM12 colon
[21] = tested on: LOX IMVI melanoma
[22] = tested on: M14 melanoma
[23] = tested on: MCF7 breast
[24] = tested on: MDA-MB-231 breast
[25] = tested on: MDA-MB-435
[26] = tested on: MOLT-4 leukemia
[27] = tested on: NCI-H226 lung
[28] = tested on: NCI-H23 lung
[29] = tested on: NCI-H460 lung
[30] = tested on: NCI-H522 lung
[31] = tested on: NCI/ADR-RES ovarian
[32] = tested on: OVCAR-3 ovarian
[33] = tested on: OVCAR-4 ovarian
[34] = tested on: OVCAR-5 ovarian
[35] = tested on: OVCAR-8 ovarian
[36] = tested on: PC-3 prostate
[37] = tested on: RPMI-8226 leukemia
[38] = tested on: RXF 393 renal
[39] = tested on: SF-268 CNS
[40] = tested on: SF-295 CNS
[41] = tested on: SF-539 CNS
[42] = tested on: SK-MEL-2 melanoma
[43] = tested on: SK-MEL-28 melanoma
[44] = tested on: SK-MEL-5 melanoma
[45] = tested on: SK-OV-3 ovarian
[46] = tested on: SN12C renal
[47] = tested on: SNB-19 CNS
[48] = tested on: SNB-75 CNS
[49] = tested on: SR leukemia
[50] = tested on: SW-620 colon
[51] = tested on: TK-10 renal
[52] = tested on: U251 CNS
[53] = tested on: UACC-62 melanoma
[54] = tested on: UO-31 renal
[55] = tested on: EKVX NSCLC
[56] = tested on: MALME-3M melanoma
[57] = tested on: T-47D breast
[58] = tested on: UACC-257 melanoma

## CCOC(=O)c1cc2c(n1Cc1cc(OC)cc(OC)c1)-c1oncc1CCC2
[1]
  GI50: 0.104 µM
  TGI: > 100 µM
[2]
  GI50: 0.0469 µM
  TGI: 0.295 µM
[3]
  GI50: 0.112 µM
  TGI: > 100 µM
[4]
  GI50: 0.0674 µM
  TGI: > 100 µM
[5]
  GI50: 0.89 µM
  TGI: > 100 µM
[6]
  GI50: 0.101 µM
  TGI: > 100 µM
[7]
  GI50: 0.0542 µM
  TGI: > 100 µM
[8]
  GI50: 0.0647 µM
  TGI: 6.15 µM
[9]
  GI50: 0.116 µM
[10]
  GI50: 0.322 µM
  TGI: > 100 µM
[11]
  GI50: 0.0588 µM
  TGI: > 100 µM
[12]
  GI50: 0.0678 µM
  TGI: > 100 µM
[13]
  GI50: 0.0311 µM
  TGI: 0.0972 µM
[14]
  GI50: 0.242 µM
  TGI: > 100 µM
[15]
  GI50: 0.0858 µM
  TGI: 7.37 µM
[16]
  GI50: 0.0492 µM
  TGI: > 100 µM
[17]
  GI50: 0.0499 µM
  TGI: 20.1 µM
[18]
  GI50: 0.0732 µM
  TGI: > 100 µM
[19]
  GI50: 0.0575 µM
  TGI: > 100 µM
[20]
  GI50: 0.0472 µM
  TGI: > 20.5 µM
[21]
  GI50: 0.119 µM
  TGI: > 100 µM
[22]
  GI50: 0.057 µM
  TGI: > 100 µM
[23]
  GI50: 0.0401 µM
  TGI: > 100 µM
[24]
  GI50: 0.439 µM
  TGI: > 24.5 µM
[25]
  GI50: 0.0313 µM
  TGI: 0.112 µM
[26]
  GI50: 0.387 µM
  TGI: > 100 µM
[27]
  GI50: 23 µM
  TGI: > 100 µM
[28]
  GI50: 0.544 µM
  TGI: > 100 µM
[29]
  GI50: 0.071 µM
  TGI: > 100 µM
[30]
  GI50: 0.0194 µM
  TGI: 0.0682 µM
[31]
  GI50: 0.0603 µM
[32]
  GI50: 0.0274 µM
  TGI: 0.0889 µM
[33]
  GI50: 1.77 µM
  TGI: > 100 µM
[34]
  GI50: 0.294 µM
  TGI: > 100 µM
[35]
  GI50: 0.169 µM
  TGI: > 100 µM
[36]
  GI50: 0.0644 µM
  TGI: > 100 µM
[37]
  GI50: 0.116 µM
  TGI: > 33.7 µM
[38]
  GI50: 0.0987 µM
  TGI: > 100 µM
[39]
  GI50: 0.243 µM
  TGI: > 100 µM
[40]
  GI50: 0.0291 µM
  TGI: 0.14 µM
[41]
  GI50: 0.0495 µM
  TGI: 0.203 µM
[42]
  GI50: 0.038 µM
  TGI: > 100 µM
[43]
  GI50: 0.143 µM
  TGI: > 100 µM
[44]
  GI50: 0.0528 µM
  TGI: 6.22 µM
[45]
  GI50: 0.108 µM
  TGI: > 100 µM
[46]
  GI50: 0.252 µM
  TGI: > 100 µM
[47]
  GI50: 0.844 µM
  TGI: > 100 µM
[48]
  GI50: 0.0276 µM
  TGI: > 100 µM
[49]
  GI50: 0.0382 µM
  TGI: > 100 µM
[50]
  GI50: 0.0784 µM
  TGI: > 100 µM
[51]
  TGI: > 100 µM
[52]
  GI50: 0.255 µM
  TGI: > 100 µM
[53]
  GI50: 0.0714 µM
  TGI: > 100 µM
[54]
  GI50: 0.392 µM
  TGI: > 100 µM

## COc1cc([C@@H]2c3cc4c(cc3C(Br)[C@H]3COC(=O)[C@H]23)OCO4)cc(OC)c1OC (stereo partly specified)
[1]
  GI50: 0.307 µM
  TGI: 33.8 µM
[2]
  GI50: 0.0257 µM
  TGI: 0.177 µM
[3]
  GI50: 0.313 µM
  TGI: > 100 µM
[4]
  GI50: 0.241 µM
  TGI: > 100 µM
[5]
  GI50: 0.254 µM
[6]
  GI50: 0.117 µM
  TGI: > 48.4 µM
[7]
  GI50: 0.363 µM
  TGI: > 100 µM
[8]
  GI50: 0.189 µM
  TGI: 0.399 µM
[9]
  GI50: 0.252 µM
  TGI: 0.646 µM
[55]
  GI50: 0.533 µM
  TGI: > 100 µM
[10]
  GI50: 0.255 µM
  TGI: 0.694 µM
[11]
  GI50: 0.207 µM
  TGI: 0.784 µM
[12]
  GI50: 0.253 µM
  TGI: > 100 µM
[13]
  GI50: 0.223 µM
[14]
  GI50: 0.436 µM
  TGI: > 100 µM
[15]
  GI50: 0.529 µM
  TGI: > 30.1 µM
[16]
  GI50: 0.142 µM
  TGI: 0.707 µM
[17]
  GI50: 0.289 µM
  TGI: 2.85 µM
[18]
  GI50: 0.291 µM
  TGI: > 65.9 µM
[19]
  GI50: 0.185 µM
  TGI: > 100 µM
[20]
  GI50: 0.0909 µM
  TGI: 0.438 µM
[21]
  GI50: 0.264 µM
  TGI: > 100 µM
[22]
  GI50: 0.22 µM
[56]
  GI50: 51.3 µM
  TGI: > 100 µM
[23]
  GI50: 0.168 µM
  TGI: > 100 µM
[24]
  GI50: 0.296 µM
[25]
  GI50: 0.0365 µM
[26]
  GI50: 0.431 µM
  TGI: > 100 µM
[27]
  GI50: 0.721 µM
  TGI: > 100 µM
[28]
  GI50: 0.321 µM
  TGI: > 100 µM
[29]
  GI50: 0.204 µM
  TGI: 0.547 µM
[30]
  GI50: 0.072 µM
  TGI: 0.389 µM
[32]
  GI50: 0.213 µM
  TGI: 0.559 µM
[33]
  GI50: 0.541 µM
  TGI: > 100 µM
[34]
  GI50: 0.552 µM
  TGI: > 100 µM
[35]
  GI50: 0.31 µM
[36]
  GI50: 0.438 µM
  TGI: > 100 µM
[37]
  GI50: 0.507 µM
  TGI: > 100 µM
[38]
  GI50: 0.0815 µM
  TGI: 6.48 µM
[39]
  GI50: 0.399 µM
  TGI: > 100 µM
[40]
  GI50: 0.0859 µM
[41]
  GI50: 0.185 µM
  TGI: 0.598 µM
[42]
  GI50: 0.499 µM
  TGI: > 100 µM
[43]
  GI50: 53.5 µM
  TGI: > 100 µM
[44]
  GI50: 0.209 µM
  TGI: 0.488 µM
[45]
  GI50: 0.312 µM
  TGI: > 100 µM
[46]
  GI50: 0.549 µM
  TGI: > 100 µM
[47]
  GI50: 0.553 µM
  TGI: > 100 µM
[48]
  GI50: 0.271 µM
  TGI: > 100 µM
[49]
  GI50: 0.117 µM
  TGI: > 100 µM
[50]
  GI50: 0.194 µM
  TGI: > 100 µM
[57]
  GI50: > 100 µM
  TGI: > 100 µM
[51]
  TGI: > 100 µM
[52]
  GI50: 0.296 µM
  TGI: > 81.2 µM
[58]
  GI50: 0.214 µM
  TGI: > 100 µM
[53]
  GI50: 0.187 µM
  TGI: > 100 µM
[54]
  GI50: 0.418 µM
  TGI: > 100 µM
